Where a name gives a salt, the structure may show the parent alone. Read-outs that look alike come from different tables or passages of the source.
Tests used:
[1] = target: T1, SARS-CoV-2 PLpro (nsp3 1564–1878) (Severe acute respiratory syndrome coronavirus 2, UniProt P0DTD1); experiment: biochemical; design: FRET-quenched peptide (Pro3) cleavage by PLpro, 10 min pre-incubation, slope over 20 min, normalised to no-compound control; conditions: low concentration screen, read-out: % of control remaining
[2] = target: T1, SARS-CoV-2 PLpro (nsp3 1564–1878); experiment: biochemical; design: FRET-quenched peptide (Pro3) cleavage by PLpro, 10 min pre-incubation, slope over 20 min, normalised to no-compound control; conditions: high concentration screen, read-out: % of control remaining

For CC(=O)O[C@H]1C[C@@H]2CC[C@@H]3[C@H](CC[C@@]4(C)[C@H]3C[C@H]([N+]3(C)CCCCC3)[C@@H]4OC(C)=O)[C@@]2(C)C[C@@H]1N1CCCCC1 [Vecuronium], the remaining activity at 1.25 µM ([1]; Well no.=2014) was 103% and the remaining activity at 3.75 µM ([2]; Well no.=2014) was 103%.
Work on CC1(C)CCC(CN2CCN(c3ccc(C(=O)NS(=O)(=O)c4ccc(NCC5CCOCC5)c([N+](=O)[O-])c4)c(Oc4cnc5[nH]ccc5c4)c3)CC2)=C(c2ccc(Cl)cc2)C1 [Venetoclax] yielded a remaining activity at 1.25 µM ([1]; Well no.=6396) of 107%, a remaining activity at 1.25 µM ([1]; Well no.=7400) of 91.2% and a remaining activity at 3.75 µM ([2]; Well no.=6396) of 104%. The remaining activity at 3.75 µM ([2]; Well no.=7400) was 94.7%.
COc1ccc(C(CN(C)C)C2(O)CCCCC2)cc1 (stereo not drawn) [Venlafaxine] gave a remaining activity at 1.25 µM ([1]; Well no.=2044) of 100% and a remaining activity at 3.75 µM ([2]; Well no.=2044) of 99.4%.
For C=CCN1CCCC1CNC(=O)c1cc(S(N)(=O)=O)cc(OC)c1OC (stereo not drawn) [Veralipride], the remaining activity at 1.25 µM ([1]; Well no.=7715) was 93.1% and the remaining activity at 3.75 µM ([2]; Well no.=7715) was 97.9%.
COc1ccc(CCN(C)CCCC(C#N)(c2ccc(OC)c(OC)c2)C(C)C)cc1OC (stereo not drawn) [Verapamil] showed a remaining activity at 1.25 µM ([1]; Well no.=1721) of 100% and a remaining activity at 3.75 µM ([2]; Well no.=1721) of 100%.
Cc1c([C@H](C)[C@@H]2NC[C@@H](C)C[C@H]2O)ccc2c1C[C@H]1[C@H]2CC=C2C[C@@H](O)CC[C@@]21C [Veratramine] showed a remaining activity at 1.25 µM ([1]; Well no.=3280) of 102% and a remaining activity at 3.75 µM ([2]; Well no.=3280) of 102%.
For COc1ccc(C(=O)O[C@H]2CC[C@@]3(C)[C@@H]4CC[C@H]5[C@]6(O)C[C@H](O)[C@@]7(O)[C@@H](CN8C[C@@H](C)CC[C@H]8[C@@]7(C)O)[C@]6(O)C[C@@]53O[C@]24O)cc1OC [Veratridine], the remaining activity at 1.25 µM ([1]; Well no.=3222) was 99.9% and the remaining activity at 3.75 µM ([2]; Well no.=3222) was 101%.
With CC(C)(C)c1ccc(S(=O)(=O)Nc2ccc(Cl)cc2C(=O)c2cc[n+]([O-])cc2)cc1 [Vercirnon] the remaining activity at 1.25 µM ([1]; Well no.=8645) was 103% and the remaining activity at 3.75 µM ([2]; Well no.=8645) was 103%.
COc1ccc2c3c4n(c2c1)[C@H](C=C(C)C)OOC(C)(C)C[C@@H]4N1C(=O)[C@@H]2CCCN2C(=O)[C@]1(O)[C@H]3O [Verruculogen] gave a remaining activity at 1.25 µM ([1]; Well no.=3556) of 98.3% and a remaining activity at 3.75 µM ([2]; Well no.=3556) of 102%.
Compound CCCCOc1nc(N)c2c(n1)N(Cc1cccc(CN3CCCC3)c1)CC(=O)N2 [Vesatolimod] has a remaining activity at 1.25 µM ([1]; Well no.=8127) of 105% and a remaining activity at 3.75 µM ([2]; Well no.=8127) of 102%.
COC[C@@H](c1ccc(C(F)(F)F)cc1)N1CCN(C2(C)CCN(C(=O)c3c(C)ncnc3C)CC2)C[C@@H]1C [Vicriviroc (maleate)] gave a remaining activity at 1.25 µM ([1]; Well no.=8655) of 106% and a remaining activity at 3.75 µM ([2]; Well no.=8655) of 103%.
With Nc1ncnc2c1ncn2[C@@H]1O[C@H](CO)[C@@H](O)[C@@H]1O [Vidarabine] the remaining activity at 1.25 µM ([1]; Well no.=2046) was 107%, the remaining activity at 1.25 µM ([1]; Well no.=8006) was 93.6% and the remaining activity at 3.75 µM ([2]; Well no.=2046) was 110%. The remaining activity at 3.75 µM ([2]; Well no.=8006) was 95.5%.
COc1cccc(-c2ccc(NC(=O)C3=C(C(=O)O)CCC3)c(F)c2)c1 [Vidofludimus] was tested, and the remaining activity at 1.25 µM ([1]; Well no.=8524) was 99.5% and the remaining activity at 3.75 µM ([2]; Well no.=8524) was 96.6%.
N#Cc1ccc2[nH]cc(CCCCN3CCN(c4ccc5oc(C(N)=O)cc5c4)CC3)c2c1 [Vilazodone (Hydrochloride)] was tested, and the remaining activity at 1.25 µM ([1]; Well no.=6286) was 105% and the remaining activity at 3.75 µM ([2]; Well no.=6286) was 106%.
For N#Cc1ccc2[nH]cc(CCCCN3CCN(c4ccc5oc(C(N)=O)cc5c4)CC3)c2c1 [Vilazodone], the remaining activity at 1.25 µM ([1]; Well no.=6477) was 90.6% and the remaining activity at 3.75 µM ([2]; Well no.=6477) was 89.2%.
Compound N#C[C@@H]1CCCN1C(=O)CNC12CC3CC(CC(O)(C3)C1)C2 [Vildagliptin (LAF-237)] has a remaining activity at 1.25 µM ([1]; Well no.=4885) of 99.1% and a remaining activity at 3.75 µM ([2]; Well no.=4885) of 99.9%.
Compound CC[C@]1(O)C[C@@H]2CN(CCc3c([nH]c4ccccc34)[C@@](C(=O)OC)(c3cc4c(cc3OC)N(C)[C@H]3[C@@](O)(C(=O)OC)[C@H](OC(C)=O)[C@]5(CC)C=CCN6CC[C@]43[C@@H]65)C2)C1 [Vinblastine sulfate salt] has a remaining activity at 1.25 µM ([1]; Well no.=1288) of 111% and a remaining activity at 3.75 µM ([2]; Well no.=1288) of 108%.
With CC[C@]1(O)C[C@@H]2CN(CCc3c([nH]c4ccccc34)[C@@](C(=O)OC)(c3cc4c(cc3OC)N(C)[C@H]3[C@@](O)(C(=O)OC)[C@H](OC(C)=O)[C@]5(CC)C=CCN6CC[C@]43[C@@H]65)C2)C1 [Vinblastine sulfate] the remaining activity at 1.25 µM ([1]; Well no.=3224) was 100% and the remaining activity at 3.75 µM ([2]; Well no.=3224) was 97.9%.
CC[C@]1(O)C[C@@H]2CN(CCc3c([nH]c4ccccc34)[C@@](C(=O)OC)(c3cc4c(cc3OC)N(C)[C@H]3[C@@](O)(C(=O)OC)[C@H](OC(C)=O)[C@]5(CC)C=CCN6CC[C@]43[C@@H]65)C2)C1 [Vinblastine] showed a remaining activity at 1.25 µM ([1]; Well no.=2165) of 101% and a remaining activity at 3.75 µM ([2]; Well no.=2165) of 103%.
Compound CC[C@]12CCCN3CCc4c(n(c5ccccc45)[C@@](O)(C(=O)OC)C1)[C@@H]32 [Vincamine] has a remaining activity at 1.25 µM ([1]; Well no.=3475) of 106% and a remaining activity at 3.75 µM ([2]; Well no.=3475) of 102%.
For CC[C@]1(O)C[C@H]2CN(CCc3c([nH]c4ccccc34)[C@@](C(=O)OC)(c3cc4c(cc3OC)N(C=O)[C@H]3[C@@](O)(C(=O)OC)[C@H](OC(C)=O)[C@]5(CC)C=CCN6CC[C@]43[C@@H]65)C2)C1 [Vincristine sulfate], the remaining activity at 1.25 µM ([1]; Well no.=1194) was 97.3%, the remaining activity at 1.25 µM ([1]; Well no.=2035) was 104% and the remaining activity at 1.25 µM ([1]; Well no.=3226) was 102%. For the same compound, the remaining activity at 3.75 µM ([2]; Well no.=1194) was 97.6% and the remaining activity at 3.75 µM ([2]; Well no.=3226) was 105%.
For CC[C@]1(O)C[C@@H]2CN(CCc3c([nH]c4ccccc34)[C@@](C(=O)OC)(c3cc4c(cc3OC)N(C)[C@H]3[C@@](O)(C(N)=O)[C@H](O)[C@]5(CC)C=CCN6CC[C@]43[C@@H]65)C2)C1 [Vindesine sulfate], the remaining activity at 1.25 µM ([1]; Well no.=2031) was 102% and the remaining activity at 3.75 µM ([2]; Well no.=2031) was 103%.
CCC12C=CCN3CC[C@@]4(c5ccc(OC)cc5N(C)[C@H]4[C@@](O)(C(=O)OC)[C@@H]1OC(C)=O)[C@@H]32 (stereo partly drawn) [Vindoline] was tested, and the remaining activity at 1.25 µM ([1]; Well no.=3761) was 96.2% and the remaining activity at 3.75 µM ([2]; Well no.=3761) was 96.6%.
With CC[C@]12C=CCN3CC[C@@]4(c5cc([C@@]6(C(=O)OC)C[C@@H]7C[C@@H](C(C)(F)F)CN(Cc8c6[nH]c6ccccc86)C7)c(OC)cc5N(C)[C@H]4[C@@](O)(C(=O)OC)[C@@H]1OC(C)=O)[C@@H]32 [Vinflunine Tartrate] the remaining activity at 1.25 µM ([1]; Well no.=4892) was 95.2% and the remaining activity at 3.75 µM ([2]; Well no.=4892) was 94.7%.
CCC1=C[C@@H]2CN(C1)Cc1c([nH]c3ccccc13)[C@@](C(=O)OC)(c1cc3c(cc1OC)N(C)[C@H]1[C@@](O)(C(=O)OC)[C@H](OC(C)=O)[C@]4(CC)C=CCN5CC[C@]31[C@@H]54)C2 [Vinorelbine] gave a remaining activity at 1.25 µM ([1]; Well no.=2029) of 104%, a remaining activity at 1.25 µM ([1]; Well no.=3763) of 96.8% and a remaining activity at 3.75 µM ([2]; Well no.=2029) of 108%. For the same compound, the remaining activity at 3.75 µM ([2]; Well no.=3763) was 100%.
In the case of CCOC(=O)C1=C[C@]2(CC)CCCN3CCc4c(n1c1ccccc41)[C@@H]32 [Vinpocetine], the remaining activity at 1.25 µM ([1]; Well no.=1432) is reported as 99%, the remaining activity at 1.25 µM ([1]; Well no.=2158) is reported as 98.7% and the remaining activity at 1.25 µM ([1]; Well no.=3228) is reported as 103%. It also gave a remaining activity at 3.75 µM ([2]; Well no.=1432) of 102% and a remaining activity at 3.75 µM ([2]; Well no.=3228) of 108%.
Cc1cc(Cn2nnc3c(-c4ccco4)nc(N)nc32)ccc1N [Vipadenant] was tested, and the remaining activity at 1.25 µM ([1]; Well no.=8603) was 95.2% and the remaining activity at 3.75 µM ([2]; Well no.=8603) was 92.7%.

— article PMC8286840, “Identifying SARS-CoV-2 antiviral compounds by screening for small molecule inhibitors of Nsp3 papain-like protease” (Biochemical Journal, 2021)
